Among the test systems are 786-0 renal; A549 NSCLC; HOP-62 NSCLC; MALME-3M melanoma; MDA-MB-231 breast; MDA-MB-435; MOLT-4 leukemia; NCI/ADR-RES ovarian; SF-295 CNS; SK-MEL-5 melanoma.
What all share (assay): NCI-60 cell line screen, 48 h

Each structure is given as a SMILES string. “And” between values parts separate entries of the source, which are not always exact repeats. Equal values may be shown once.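 In this assay, cells in 96-well plates receive the compound at five concentrations for 48 hours. Endpoints are linearly interpolated between the surrounding concentrations. GI50: concentration for 50% inhibition of growth. TGI denotes the concentration required for complete inhibition of growth.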

`COc1cc(-n2cc(-c3ccc(Cl)cc3)n(-c3ccccc3)c2=O)cc(OC)c1OC`: the GI50 with 786-0 renal is 30.7 µM; in the test with A549 NSCLC, 19.3 µM; with HOP-62 NSCLC, 44.3 µM; in the test with MALME-3M melanoma, 21.2 µM; in the test on MDA-MB-231 breast, 16.4 µM; in the test on MDA-MB-435, 18.7 µM. The GI50 in the test with MOLT-4 leukemia is 11.3 µM; in the test with NCI/ADR-RES ovarian it was 21.5 µM; in the test on SF-295 CNS it was 19.3 µM; in the test on SK-MEL-5 melanoma it was 3.99 µM. The TGI in the test on 786-0 renal is > 100 µM; with A549 NSCLC, > 100 µM; in the test on HOP-62 NSCLC, > 100 µM; in the test on MALME-3M melanoma, 75.2 µM; with MDA-MB-231 breast it was > 68.9 µM; with MDA-MB-435, > 86.3 µM. The TGI is > 51.6 µM in the test with MOLT-4 leukemia, > 100 µM in the test with NCI/ADR-RES ovarian, > 100 µM in the test with SF-295 CNS and 17.7 µM with SK-MEL-5 melanoma.
For the molecule `ClCc1ccccc1Cn1cnc2nc(Cl)nc(Cl)c21`, the GI50 in the test with 786-0 renal is 0.19 µM; in the test with A549 NSCLC it was 5.29 µM; in the test on HOP-62 NSCLC it was 2.35 µM; in the test on MALME-3M melanoma it was 1.68 µM; in the test on MDA-MB-231 breast, 0.219 µM; with MDA-MB-435, 6.04 µM. Besides, the GI50 with MOLT-4 leukemia is 1.49 µM; with NCI/ADR-RES ovarian it was 1.07 µM; in the test with SF-295 CNS, 9.28 µM; with SK-MEL-5 melanoma it was 0.369 µM. For the same molecule, the TGI in the test with 786-0 renal stood at 1.08 µM; in the test with A549 NSCLC it was 13.2 µM; with HOP-62 NSCLC it was 4.4 µM; in the test on MALME-3M melanoma, 7.75 µM; with MDA-MB-231 breast, 0.642 µM; in the test on MDA-MB-435 it was 13.2 µM. In addition, the TGI in the test on MOLT-4 leukemia was 4.09 µM; in the test with NCI/ADR-RES ovarian, 3.96 µM; in the test with SF-295 CNS it was 32.3 µM; with SK-MEL-5 melanoma, 0.997 µM.
`Oc1ccc(N=Nc2ccc(Br)cc2)c(O)c1`: the GI50 is 3.17 µM in the test with 786-0 renal; 3.19 µM with A549 NSCLC; 3.9 µM with HOP-62 NSCLC; 3.61 µM in the test on MALME-3M melanoma; 3.47 µM with MDA-MB-231 breast; 1.25 µM in the test on MDA-MB-435. Also, the GI50 in the test on MOLT-4 leukemia was 1.94 µM; in the test on NCI/ADR-RES ovarian, 3.07 µM; in the test on SF-295 CNS, 2.64 µM; with SK-MEL-5 melanoma it was 3.85 µM. For the same molecule, the TGI with 786-0 renal turned out to be 23.6 µM; with A549 NSCLC it was 17.9 µM; in the test with HOP-62 NSCLC it was 19.5 µM; with MALME-3M melanoma, 20.7 µM; with MDA-MB-231 breast it was 16.6 µM; in the test with MDA-MB-435, 3.65 µM. For the same molecule, the TGI came out at 5.56 µM with MOLT-4 leukemia, 9.29 µM in the test with NCI/ADR-RES ovarian, 11.5 µM with SF-295 CNS and 21.6 µM with SK-MEL-5 melanoma.
Take `COc1cc2c(/C=C3\C(=O)N(C)c4ccccc43)c[nH]c2cc1C`: the GI50 was 4.43 µM with 786-0 renal; 2.39 µM with A549 NSCLC; 2.23 µM in the test on HOP-62 NSCLC; 1 µM in the test on MALME-3M melanoma; 2.05 µM in the test with MDA-MB-231 breast; 1.62 µM with MDA-MB-435. The GI50 in the test with MOLT-4 leukemia was 5.83 µM; in the test with NCI/ADR-RES ovarian it was 0.65 µM; in the test with SF-295 CNS it was 0.374 µM; with SK-MEL-5 melanoma, 2.36 µM. Moreover, the TGI in the test on 786-0 renal was > 59.6 µM; with A549 NSCLC it was > 66.8 µM; in the test on HOP-62 NSCLC, 39.3 µM; with MALME-3M melanoma, > 53.9 µM; in the test with MDA-MB-231 breast, > 100 µM; in the test on MDA-MB-435, 12.1 µM. In addition, the TGI with MOLT-4 leukemia was > 64 µM; with NCI/ADR-RES ovarian, 23.3 µM; in the test with SF-295 CNS, 15.6 µM; in the test on SK-MEL-5 melanoma, > 40 µM.
Regarding `Nc1nc(Sc2ccc([N+](=O)[O-])c3nonc23)c2ncn(C3OC(CO)C(O)C3O)c2n1` (stereo not given), the GI50 with 786-0 renal was 0.766 µM; with A549 NSCLC it was 4.27 µM; with HOP-62 NSCLC, 0.531 µM; in the test on MALME-3M melanoma it was 9.8 µM; in the test with MDA-MB-231 breast, 0.549 µM; in the test with MDA-MB-435, 1.67 µM. The GI50 with MOLT-4 leukemia was 0.325 µM; with NCI/ADR-RES ovarian, 0.47 µM; with SF-295 CNS, 1.95 µM; in the test on SK-MEL-5 melanoma, 2.4 µM. Also, the TGI with 786-0 renal was 14.2 µM; in the test with A549 NSCLC, > 100 µM; in the test with HOP-62 NSCLC it was > 100 µM; in the test on MALME-3M melanoma, > 42.1 µM; in the test on MDA-MB-231 breast it was 14.8 µM; in the test on MDA-MB-435, > 57.1 µM. Besides, the TGI is > 37.5 µM in the test with MOLT-4 leukemia, > 73.2 µM in the test on NCI/ADR-RES ovarian, > 100 µM with SF-295 CNS and > 22.4 µM in the test on SK-MEL-5 melanoma.
Consider `COc1cc2c3c(n(CCCN=[N+]=[N-])c(=O)c2cc1OC)-c1ccc(F)cc1C3=O`, for which the GI50 in the test on 786-0 renal was 2.88 µM; with A549 NSCLC, 48 µM; in the test with HOP-62 NSCLC it was 4.18 µM; in the test on MALME-3M melanoma, > 100 µM; in the test with MDA-MB-231 breast it was > 100 µM; with MDA-MB-435, 38.1 µM. For the same molecule, the GI50 is 2.7 µM in the test on MOLT-4 leukemia, 7.44 µM in the test on NCI/ADR-RES ovarian, 2.62 µM in the test on SF-295 CNS and 4.25 µM in the test with SK-MEL-5 melanoma. The TGI in the test on 786-0 renal is 14.7 µM; with A549 NSCLC, > 100 µM; in the test on HOP-62 NSCLC it was > 100 µM; with MALME-3M melanoma it was > 100 µM; in the test with MDA-MB-231 breast it was > 100 µM; in the test with MDA-MB-435, > 100 µM. The TGI with MOLT-4 leukemia was 28.5 µM; with NCI/ADR-RES ovarian it was > 100 µM; in the test with SF-295 CNS it was 7.97 µM; in the test on SK-MEL-5 melanoma, 17.9 µM.
With `CCOc1ccc(-c2nc3ccc(-c4nc5ccc(N6CCN(C)CC6)cc5[nH]4)cc3[nH]2)cc1`, the GI50 in the test with 786-0 renal is 0.527 µM and 0.198 µM; with A549 NSCLC, 1.24 µM and 1.04 µM; with HOP-62 NSCLC, 0.456 µM; in the test on MALME-3M melanoma, 0.0329 µM; in the test with MDA-MB-231 breast, 1.25 µM; with MDA-MB-435 it was 0.69 µM. In addition, the GI50 with MOLT-4 leukemia was 0.299 µM; in the test with NCI/ADR-RES ovarian, 5.4 µM; with SF-295 CNS, 0.518 µM; with SK-MEL-5 melanoma, 0.0761 µM. The TGI in the test on 786-0 renal was 1.57 µM and 0.809 µM; with A549 NSCLC it was 3.13 µM and 3.35 µM; in the test with HOP-62 NSCLC, 1.6 µM; with MALME-3M melanoma, 0.551 µM; with MDA-MB-231 breast, 2.6 µM; with MDA-MB-435, 2.8 µM. The TGI with MOLT-4 leukemia was 1.81 µM; in the test with NCI/ADR-RES ovarian it was > 100 µM; in the test on SF-295 CNS it was 2.63 µM; in the test on SK-MEL-5 melanoma, 1.42 µM.
